Tests used:
[1] = tested on: phenylbenzoquinone-induced writhing; experiment: phenylbenzoquinone-induced writhing test in mice (analgesic activity); type: in vivo; conditions: ratio of activity relative to the parent NSAID; oral gavage 1 hour prior to phenylbenzoquinone i.p.
Method: The phenylbenzoquinone-induced writhing test in mice was used to measure analgesic activity. The ability of the compounds to inhibit phenylbenzoquinone-induced writhing in mice was measured using the method of Siegmund et al., Proc. Soc. […] Male CD-1 mice (Charles River Laboratories, Wilmington, Mass.) weighing 20-25 g were fasted overnight. Vehicle or compounds were administered by oral gavage 1 hour prior to i.p. injection of 2 mg/kg of phenylbenzoquinone. In the case of a nitric oxide adduct being given in combination with a NSAID, the nitric oxide adduct was administered immediately before the NSAID. Five minutes after the i.p. injection of phenylbenzoquinone, the number of writhes in a 5 minute period was counted.

gastric lesion [2] = experiment: rat gastric lesion test, acute (single dose); type: in vivo, rats
Method: (§1) The rat gastric lesion test (Kitagawa et al., J. Pharmacol. Exp.Ther., 253:1133-1137, 1990; Al-Ghamdi et al., J. Int. Med. Res., 19: 2242, 1991) was used to evaluate the potential of compounds to produce gastric lesion. Male Sprague Dawley rats (Charles River Laboratories, Wilmington, Mass.) weighing 230-250 g were used for the experiments. The rats were housed with laboratory chow and water ad libitum prior to the study. The rats were fasted for 24-30 hours with free access to water and then dosed by oral gavage with vehicle or with drugs given at a volume of 0.5 mL/100 g. For the unmodified NSAIDs being given in combination with a nitric oxide adduct (NO-adduct), the NO-adduct was administered by oral gavage immediately prior to the administration of NSAID by oral gavage. Food was withheld for 18 hours after the initial dosing. For acute studies, rats were euthanized by CO2 eighteen hours after dosing and the stomachs were dissected. For the multiple dosing studies, the results of which are in Table 3, food was given eighteen hours after the first dose and the rats were maintained on food and water ad libitum while receiving a single daily dose for the remainder of the experiment. […] The stomachs were dissected along the greater curvature, washed with a directed stream of 0.9% saline and pinned open on a sylgard based petridish for examination of the hemorrhagic lesion. Gastric lesion score was expressed in mm and calculated by summing the length of each lesion.

carrageenin paw edema = experiment: rat paw edema test (antiinflammatory activity); type: in vivo, rats; conditions: ratio of activity relative to the parent NSAID; oral gavage one hour prior to carrageenin, paw volume after three hours
Method: The rat paw edema test was used to measure antiinflammatory activity. The rat paw edema test was performed according to the method of Winter et al., Proc. Soc. […] Male Sprague-Dawley rats (250-275 g) were fasted overnight and dosed by oral gavage with vehicle or suspensions of compound one hour prior to the subplantar injection of 50 μl of 1% suspension of carrageenin. Three hours later, the paw volume was measured and compared with the initial volume measured immediately after carrageenin injection.

gastric lesion [3] = experiment: rat gastric lesion test, multiple dosing studies; type: in vivo, rats
Method: as §1, with “Food was withheld for 18 hours after the initial dosing.” left out, “For the multiple dosing studies, the results of which are in Table 3, food was given eighteen hours after the first dose and the rats were maintained on food and water ad libitum while receiving a single daily dose for the remainder of the experiment.” left out

[4] = male, Sprague Dawley, rat, in vivo, po, 18 h
[5] = ratio of activity relative to the parent NSAID, oral gavage, fasted rats
[6] = 7 days, fasted 24-30 hours before and 18 hours after first dosing, Ibuprofen 30, Example 11 50, Example 12 45 mg/kg

Row | Molecule | Relative Activity Gastric Lesion (gastric lesion [2]; [4]) | Relative Activity Gastric Lesion (gastric lesion [2]; rat, in vivo, po) | Relative Activity Analgesia [1] | Relative Activity Antiinflammation (carrageenin paw edema) | Relative Activity Gastric Lesion (gastric lesion [2]; [5]) | Relative Gastric Lesion Activity (gastric lesion [3]; [6]) | Relative Gastric Lesion Activity (gastric lesion [3]; 4 days, fasted 24-30 hours before and 4 hours after first dosing, Ketoprofen 10, Example 4 14, Example 6 15 mg/kg)
1 | COc1ccc2c(c1)c(CC(=O)O)c(C)n2C(=O)c1ccc(Cl)cc1 [Indomethacin, reference compound] | 1 | – | 1 | 1 | – | – | –
2 | 4-O-Nitroso-1-(α-methyl-4-(2-methylpropyl)benzeneacetic Acid) Butyl Ester [Example 12] | – | – | – | 1 | <0.03 | + (1-20% of the gastric toxcity induced by the parent NSAID = +) | –
3 | CC(C(=O)OCCC(C)(C)SN=O)c1cccc(C(=O)c2ccccc2)c1 (stereo not drawn) [Example 6, 3-S-Nitroso-3-methyl-1-(3-benzoyl-α-methylbenzeneacetic Acid) Butyl Ester] | – | – | 1 | – | – | – | ++ (21-40% of the gastric toxcity induced by the parent NSAID = ++)
4 | CC(C(=O)OCc1ccc(CON=O)cc1)c1cccc(C(=O)c2ccccc2)c1 (stereo not drawn) [Example 16, 4O-Nitroso-hydroxymethylene-(1-(3-benzoyl-α-methylbenzeneacetic Acid)) Benzyl Ester] | – | – | 1.1 | – | – | – | –
5 | 4-O-Nitroso-4-methyl-1-(3-benzoyl-α-methylbenzeneacetic Acid) Pentyl Ester [Example 5] | – | – | 1.1 | – | – | – | –
6 | CC(C)Cc1ccc(C(C)C(=O)OCCC(C)(C)SN=O)cc1 (stereo not drawn) [Example 11, 3-S-Nitroso-3-methyl-1-(α-methyl-4-(2-methylpropyl)benzeneacetic Acid) Butyl Ester] | – | – | – | 1 | <0.05 | + (1-20% of the gastric toxcity induced by the parent NSAID = +) | –

The next lines start with results.

Row | Relative Activity Gastric Lesion (gastric lesion [2]; [4]) | Relative Activity Gastric Lesion (gastric lesion [2]; rat, in vivo, po) | Molecule | Relative Activity Analgesia [1] | Relative Activity Antiinflammation (carrageenin paw edema) | Relative Activity Gastric Lesion (gastric lesion [2]; [5]) | Relative Gastric Lesion Activity (gastric lesion [3]; [6]) | Relative Gastric Lesion Activity (gastric lesion [3]; 4 days, fasted 24-30 hours before and 4 hours after first dosing, Ketoprofen 10, Example 4 14, Example 6 15 mg/kg)
7 | 1 | – | CN1C(C(=O)Nc2ccccn2)=C(O)c2ccccc2S1(=O)=O [Piroxicam, reference compound] | 1 | – | – | – | –
8 | – | 0.03 | CC(C(=O)OCCCCON=O)c1cccc(C(=O)c2ccccc2)c1 (stereo not drawn) [Example 4, 4-O-Nitroso-1-(3-benzoyl-α-methylbenzeneacetic Acid) Butyl Ester] | 1.6 | 0.58 | – | – | –
9 | – | 0.5 | CC(C(=O)OCCCCON=O)c1ccc(-c2ccccc2)c(F)c1 (stereo not drawn) [Example 13, 4-O-Nitroso-1-(2-Fluoro-α-methyl-biphenylacetic Acid) Butyl Ester] | 0.31 | 1.83 | – | – | –
10 | 1 | – | CC(C(=O)O)c1ccc(-c2ccccc2)c(F)c1 (stereo not drawn) [Flurbiprofen, reference compound] | 1 | 1 | – | – | –
11 | – | 0.08 | COc1ccc2c(c1)c(CC(=O)OCCCCON=O)c(C)n2C(=O)c1ccc(Cl)cc1 [Example 8] | 1 | 1 | – | – | –

From US6790864B2, “Compositions and methods to prevent toxicity induced by nonsteroidal antiinflammatory drugs” (NitroMed, Inc., priority 1995, dated 2004)
